According to patent publication US4268680A, “Heterocyclic derivatives of 1-(1,3-dioxolan-2-ylmethyl)-1H-imidazoles and 1H-1,2,4-triazoles” (Janssen Pharmaceutica N.V., priority 1979, dated 1981):

System: Candida albicans
Assay: Experiment B: Activity of compounds (I) against crop candidosis in turkeys
Assay type: in vivo
Details: Table II; medicated feed for 13 consecutive days; crops of 50% of the animals completely negative for Candida albicans
Protocol: Experiment B: Activity of compounds (I) against crop candidosis in turkeys. Turkeys of 14 days old were infected in the crop with 4.10^6 Candida albicans cells, grown on Sabouraud broth for 48 hours at 37° C. and diluted with saline. The volume of the inoculum was 1 ml. The drug under investigation were premixed in 500 mg of lacton and thereafter admixed in 1000 g of meal without any additives. The concentration of the drug under investigation in the meal was expressed in mg/kg. The animals were given the medicated feed for 13 consecutive days starting on the day of infection. At the end of the experiment all animals were sacrificed. At autopsy the crops were removed, emptied and grinded in an ultra-turrax mixer in 15 ml of sterile saline. Colony counting was done on Sabouraud agar and the results given in Tables I and II represent the ED50, i.e., the dose of the drug whereby the crops of 50% of the animals were completely negative for Candida albicans.

Clc1ccc(C2(Cn3cncn3)OCC(COc3ccc(-n4ccnc4)cc3)O2)c(Cl)c1 (stereo not shown)
Crop candidosis in Turkeys: EO50 in mg/kg in feed: 8 mg/kg in feed
